The supplement of paper PMC11414989

Tests used:
Conditions in all cases: exposure window: 6 hpf to 120 hpf, static, assay age: 120 hpf (5 dpf)
[1] = tested on: Danio rerio larvae (Tropical 5D); test: mean distance moved of exposed larvae, dark phase (µm per frame (1/25 s)); higher = more movement
Experimental: (§1)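 Larval photomotor response in Tropical 5D wild-type zebrafish. Larvae were statically exposed to each chemical from 6 hpf to 5 dpf in 96-well plates; morphologically abnormal larvae were excluded. At 120 hpf, larvae were tracked with Ethovision XT (25 frames/s) over the 2nd cycle of 3 min light and 3 min dark. Values are the mean movement metric of exposed larvae per phase; same-plate control means (plate-dependent baseline) are given as conditions.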

[2] = tested on: Danio rerio larvae (Tropical 5D); test: mean distance moved of exposed larvae, light phase (µm per frame (1/25 s)); higher = more movement
Experimental: as §1

[3] = tested on: Danio rerio larvae (Tropical 5D); test: mean angular velocity of exposed larvae, dark phase (angular velocity (unit not stated)); higher = more movement
Experimental: as §1

[4] = tested on: Danio rerio larvae (Tropical 5D); test: mean angular velocity of exposed larvae, light phase (angular velocity (unit not stated)); higher = more movement
Experimental: as §1

## O=C(O)C(F)(F)C(F)(F)C(F)(F)C(F)(F)C(F)(F)C(F)(F)C(F)(F)C(F)(F)C(F)(F)C(F)(F)C(F)(F)C(F)(F)C(F)(F)C(F)(F)C(F)(F)C(F)(F)C(F)(F)F [Perfluoro-n-octadecanoic acid]
[1]; 0.25 µM
  mean distance moved of exposed larvae: 10.3
[2]; 0.25 µM
  mean distance moved of exposed larvae: 3.51
[3]; 0.25 µM
  mean angular velocity of exposed larvae: 0.571
[4]; 0.25 µM
  mean angular velocity of exposed larvae: 0.146

## O=P(O)(O)C(F)(F)C(F)(F)C(F)(F)C(F)(F)C(F)(F)C(F)(F)C(F)(F)C(F)(F)C(F)(F)C(F)(F)F [Perfluorodecylphosphonic acid]
[1]; 0.25 µM
  mean distance moved of exposed larvae: 9.21
[2]; 0.25 µM
  mean distance moved of exposed larvae: 1.45
[3]; 0.25 µM
  mean angular velocity of exposed larvae: 0.34
[4]; 0.25 µM
  mean angular velocity of exposed larvae: 0.0471

## O=S(=O)(O)C(F)(F)C(F)(F)C(F)(F)C(F)(F)C(F)(F)C(F)(F)F [Perfluorohexanesulfonic acid]
[1]; 0.015 µM
  mean distance moved of exposed larvae: 11.6
[1]; 0.046 µM
  mean distance moved of exposed larvae: 20.4
[1]; 0.14 µM
  mean distance moved of exposed larvae: 13.8
[1]; 0.41 µM
  mean distance moved of exposed larvae: 17.2
[1]; 1.23 µM
  mean distance moved of exposed larvae: 23
[1]; 3.7 µM
  mean distance moved of exposed larvae: 22.9
[1]; 11.1 µM
  mean distance moved of exposed larvae: 25.2
[1]; 33.3 µM
  mean distance moved of exposed larvae: 8.39
[1]; 66.5 µM
  mean distance moved of exposed larvae: 3.78
[1]; 100 µM
  mean distance moved of exposed larvae: 3.15
[2]; 0.015 µM
  mean distance moved of exposed larvae: 2.17
[2]; 0.046 µM
  mean distance moved of exposed larvae: 2.46
[2]; 0.14 µM
  mean distance moved of exposed larvae: 1.98
[2]; 0.41 µM
  mean distance moved of exposed larvae: 2.2
[2]; 1.23 µM
  mean distance moved of exposed larvae: 3.86
[2]; 3.7 µM
  mean distance moved of exposed larvae: 3.31
[2]; 11.1 µM
  mean distance moved of exposed larvae: 4.59
[2]; 33.3 µM
  mean distance moved of exposed larvae: 8.09
[2]; 66.5 µM
  mean distance moved of exposed larvae: 3.27
[2]; 100 µM
  mean distance moved of exposed larvae: 3.18
[3]; 0.015 µM
  mean angular velocity of exposed larvae: 0.475
[3]; 0.046 µM
  mean angular velocity of exposed larvae: 0.762
[3]; 0.14 µM
  mean angular velocity of exposed larvae: 0.609
[3]; 0.41 µM
  mean angular velocity of exposed larvae: 0.788
[3]; 1.23 µM
  mean angular velocity of exposed larvae: 0.884
[3]; 3.7 µM
  mean angular velocity of exposed larvae: 0.738
[3]; 11.1 µM
  mean angular velocity of exposed larvae: 0.954
[3]; 33.3 µM
  mean angular velocity of exposed larvae: 0.358
[3]; 66.5 µM
  mean angular velocity of exposed larvae: 0.271
[3]; 100 µM
  mean angular velocity of exposed larvae: 0.173
[4]; 0.015 µM
  mean angular velocity of exposed larvae: 0.178
[4]; 0.046 µM
  mean angular velocity of exposed larvae: 0.0902
[4]; 0.14 µM
  mean angular velocity of exposed larvae: 0.121
[4]; 0.41 µM
  mean angular velocity of exposed larvae: 0.123
[4]; 1.23 µM
  mean angular velocity of exposed larvae: 0.25
[4]; 3.7 µM
  mean angular velocity of exposed larvae: 0.171
[4]; 11.1 µM
  mean angular velocity of exposed larvae: 0.153
[4]; 33.3 µM
  mean angular velocity of exposed larvae: 0.351
[4]; 66.5 µM
  mean angular velocity of exposed larvae: 0.241
[4]; 100 µM
  mean angular velocity of exposed larvae: 0.114

## O=P(O)(O)C(F)(F)C(F)(F)C(F)(F)C(F)(F)C(F)(F)C(F)(F)F [Perfluorohexylphosphonic acid]
[1]; 0.25 µM
  mean distance moved of exposed larvae: 24.1
[2]; 0.25 µM
  mean distance moved of exposed larvae: 5.18
[3]; 0.25 µM
  mean angular velocity of exposed larvae: 0.788
[4]; 0.25 µM
  mean angular velocity of exposed larvae: 0.148

## O=P(O)(O)C(F)(F)C(F)(F)C(F)(F)C(F)(F)C(F)(F)C(F)(F)C(F)(F)C(F)(F)F [Perfluorooctylphosphonic acid]
[1]; 0.25 µM
  mean distance moved of exposed larvae: 29.9
[2]; 0.25 µM
  mean distance moved of exposed larvae: 10.3
[3]; 0.25 µM
  mean angular velocity of exposed larvae: 0.959
[4]; 0.25 µM
  mean angular velocity of exposed larvae: 0.308

## O=S(=O)(O)C(F)(F)C(F)(F)C(F)(F)C(F)(F)F [Potassium perfluoro-1-butanesulfonate]
[1]; 0.25 µM
  mean distance moved of exposed larvae: 30.9
[2]; 0.25 µM
  mean distance moved of exposed larvae: 1.73
[3]; 0.25 µM
  mean angular velocity of exposed larvae: 1.11
[4]; 0.25 µM
  mean angular velocity of exposed larvae: 0.0624

## O=S(=O)(O)CCC(F)(F)C(F)(F)C(F)(F)C(F)(F)F [Sodium 1H,1H,2H,2H-perfluorohexane sulfonate(4:2)]
[1]; 0.25 µM
  mean distance moved of exposed larvae: 44.7
[2]; 0.25 µM
  mean distance moved of exposed larvae: 4.72
[3]; 0.25 µM
  mean angular velocity of exposed larvae: 1.24
[4]; 0.25 µM
  mean angular velocity of exposed larvae: 0.152

## O=S(=O)(O)C(F)(F)C(F)(F)C(F)(F)C(F)(F)C(F)(F)C(F)(F)C(F)(F)C(F)(F)Cl [Sodium 8-chloroperfluoro-1-octanesulfonate]
[1]; 0.25 µM
  mean distance moved of exposed larvae: 28.8
[2]; 0.25 µM
  mean distance moved of exposed larvae: 2.63
[3]; 0.25 µM
  mean angular velocity of exposed larvae: 0.945
[4]; 0.25 µM
  mean angular velocity of exposed larvae: 0.0987

## O=S(=O)(O)C(F)(F)C(F)(F)C(F)(F)C(F)(F)C(F)(F)F [Sodium Perfluoro-1-pentanesulfonate]
[1]; 0.25 µM
  mean distance moved of exposed larvae: 34.7
[2]; 0.25 µM
  mean distance moved of exposed larvae: 5.23
[3]; 0.25 µM
  mean angular velocity of exposed larvae: 1.28
[4]; 0.25 µM
  mean angular velocity of exposed larvae: 0.235

## O=P(O)(C(F)(F)C(F)(F)C(F)(F)C(F)(F)C(F)(F)C(F)(F)F)C(F)(F)C(F)(F)C(F)(F)C(F)(F)C(F)(F)C(F)(F)F [Sodium bis(perfluorohexyl)phosphinate]
[1]; 0.25 µM
  mean distance moved of exposed larvae: 14.2
[2]; 0.25 µM
  mean distance moved of exposed larvae: 1.35
[3]; 0.25 µM
  mean angular velocity of exposed larvae: 0.687
[4]; 0.25 µM
  mean angular velocity of exposed larvae: 0.163

## O=P(O)(C(F)(F)C(F)(F)C(F)(F)C(F)(F)C(F)(F)C(F)(F)C(F)(F)C(F)(F)F)C(F)(F)C(F)(F)C(F)(F)C(F)(F)C(F)(F)C(F)(F)C(F)(F)C(F)(F)F [Sodium bis(perfluorooctyl)phosphinate]
[1]; 0.25 µM
  mean distance moved of exposed larvae: 15.1
[2]; 0.25 µM
  mean distance moved of exposed larvae: 2.89
[3]; 0.25 µM
  mean angular velocity of exposed larvae: 0.704
[4]; 0.25 µM
  mean angular velocity of exposed larvae: 0.119

## O=S(=O)(O)C(F)(F)C(F)(F)C(F)(F)C(F)(F)C(F)(F)C(F)(F)C(F)(F)C(F)(F)C(F)(F)C(F)(F)F [Sodium perfluoro-1-decanesulfonate]
[1]; 0.25 µM
  mean distance moved of exposed larvae: 24.8
[2]; 0.25 µM
  mean distance moved of exposed larvae: 6.8
[3]; 0.25 µM
  mean angular velocity of exposed larvae: 0.897
[4]; 0.25 µM
  mean angular velocity of exposed larvae: 0.372
